In data set [1] the target is T1, LIM domain kinase 2 (Homo sapiens, UniProt P53671). Put plainly: Inhibition of human full-length LIMK2 assessed as incorporation of P33 from ATP into biotinylated-cofilin substrate by scintillation counting analysis in presence of 2 uM ATP.
Data set [2] in a line: Stability of the compound in 1:1 H2O/MeOH assessed as decomposition measured at 60 degC after 24 hrs by HPLC. It is filed as physicochemical.
Data set [3] concerns the target T2, Rho-associated protein kinase 1 (Homo sapiens, UniProt Q13464). Put plainly: Inhibition of human Rock1 assessed as incorporation of P33 from ATP into biotinylated-cofilin substrate by scintillation counting analysis in presence of 2 uM ATP.
Data set [4] deals with Mus musculus. Put plainly: Reduction in dexamethasone-induced ocular hypertensive C57BL/6J-Tyr c-Brd x 129S5/SvEvBrd, F2 generation mouse assessed as intraocular pressure at 5 mg/ml, topical instillation measured after 2 hrs. Type of data set: functional, Eye.
Data set [5] addresses LIM domain kinase 1 (Homo sapiens, UniProt P53667). Kind of data set: Inhibition of human LIMK1 assessed as incorporation of P33 from ATP into biotinylated-cofilin substrate by scintillation counting analysis in presence of 2 uM ATP.
Data set [6] concerns the target T2, Rho-associated protein kinase 1. Kind of data set: Inhibition of human Rock1 assessed as incorporation of P33 from ATP into biotinylated-cofilin substrate by scintillation counting analysis in presence of 200 uM ATP.
Data set [7] deals with T1, LIM domain kinase 2. Put plainly: Binding affinity to human LIMK2.
A short description of data set [8]: Stability of the compound in aqueous solution formulation at 60 degC after 14 days. To be noted: read-out: Stability. It is filed as physicochemical.
Data set [9] addresses T1, LIM domain kinase 2. Put plainly: Inhibition of human full-length LIMK2 assessed as incorporation of P33 from ATP into biotinylated-cofilin substrate by scintillation counting analysis in presence of 200 uM ATP.
The target in data set [10] is T3, Rho-associated protein kinase 2 (Homo sapiens, UniProt O75116). Kind of data set: Inhibition of human Rock2 assessed as incorporation of P33 from ATP into biotinylated-cofilin substrate by scintillation counting analysis in presence of 2 uM ATP.
T3 sequence (O75116 whole entry): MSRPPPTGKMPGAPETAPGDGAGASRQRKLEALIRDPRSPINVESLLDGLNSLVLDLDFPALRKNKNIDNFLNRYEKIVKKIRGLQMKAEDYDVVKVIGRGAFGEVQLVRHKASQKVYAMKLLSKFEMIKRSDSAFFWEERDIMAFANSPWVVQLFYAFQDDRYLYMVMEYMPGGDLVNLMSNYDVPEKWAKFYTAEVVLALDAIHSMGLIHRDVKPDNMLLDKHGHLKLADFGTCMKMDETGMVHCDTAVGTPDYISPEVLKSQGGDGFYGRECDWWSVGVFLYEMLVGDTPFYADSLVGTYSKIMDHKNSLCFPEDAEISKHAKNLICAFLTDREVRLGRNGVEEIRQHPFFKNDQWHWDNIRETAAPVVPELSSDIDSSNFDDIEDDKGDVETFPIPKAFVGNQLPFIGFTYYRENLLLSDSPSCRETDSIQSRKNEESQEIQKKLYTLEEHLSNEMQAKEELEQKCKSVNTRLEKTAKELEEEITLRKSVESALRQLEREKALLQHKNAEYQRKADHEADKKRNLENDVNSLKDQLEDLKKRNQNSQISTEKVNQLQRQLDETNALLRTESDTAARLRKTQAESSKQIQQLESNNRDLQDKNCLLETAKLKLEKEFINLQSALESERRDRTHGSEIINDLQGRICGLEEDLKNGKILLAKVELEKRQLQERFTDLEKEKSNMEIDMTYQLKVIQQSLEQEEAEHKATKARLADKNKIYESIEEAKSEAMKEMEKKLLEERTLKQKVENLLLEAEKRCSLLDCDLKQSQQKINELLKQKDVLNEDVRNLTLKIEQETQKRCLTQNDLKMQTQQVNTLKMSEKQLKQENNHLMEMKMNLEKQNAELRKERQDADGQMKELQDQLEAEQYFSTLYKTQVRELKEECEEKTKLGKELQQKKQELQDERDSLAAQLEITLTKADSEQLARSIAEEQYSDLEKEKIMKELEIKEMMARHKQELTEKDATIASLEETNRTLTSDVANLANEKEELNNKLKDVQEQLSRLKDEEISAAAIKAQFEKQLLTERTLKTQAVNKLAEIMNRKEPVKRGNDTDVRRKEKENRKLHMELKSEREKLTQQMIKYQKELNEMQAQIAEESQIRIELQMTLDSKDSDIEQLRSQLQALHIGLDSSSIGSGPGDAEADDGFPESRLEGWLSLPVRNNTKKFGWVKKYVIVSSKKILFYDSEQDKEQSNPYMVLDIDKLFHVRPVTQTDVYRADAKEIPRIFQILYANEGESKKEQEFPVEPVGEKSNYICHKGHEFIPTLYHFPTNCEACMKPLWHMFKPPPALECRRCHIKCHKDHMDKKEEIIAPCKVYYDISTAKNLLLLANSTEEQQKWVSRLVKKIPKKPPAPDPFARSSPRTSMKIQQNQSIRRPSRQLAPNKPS
In data set [11] the target is T3, Rho-associated protein kinase 2. Put plainly: Inhibition of human Rock2 assessed as incorporation of P33 from ATP into biotinylated-cofilin substrate by scintillation counting analysis in presence of 200 uM ATP.
For data set [12] the target is unchanged. Put plainly: Binding affinity to human Rock2.
A short description of data set [13]: Cmax in rat dosed topically. It is filed as ADME, organism-based. As to conditions: in vivo, topical or ocular.

These results are taken from ChEMBL document CHEMBL3352182, “Discovery and Development of LX7101, a Dual LIM-Kinase and ROCK Inhibitor for the Treatment of Glaucoma” (ACS Med Chem Lett, 2015).

Some results are limits rather than exact numbers.

T2 sequence (Q13464 whole entry): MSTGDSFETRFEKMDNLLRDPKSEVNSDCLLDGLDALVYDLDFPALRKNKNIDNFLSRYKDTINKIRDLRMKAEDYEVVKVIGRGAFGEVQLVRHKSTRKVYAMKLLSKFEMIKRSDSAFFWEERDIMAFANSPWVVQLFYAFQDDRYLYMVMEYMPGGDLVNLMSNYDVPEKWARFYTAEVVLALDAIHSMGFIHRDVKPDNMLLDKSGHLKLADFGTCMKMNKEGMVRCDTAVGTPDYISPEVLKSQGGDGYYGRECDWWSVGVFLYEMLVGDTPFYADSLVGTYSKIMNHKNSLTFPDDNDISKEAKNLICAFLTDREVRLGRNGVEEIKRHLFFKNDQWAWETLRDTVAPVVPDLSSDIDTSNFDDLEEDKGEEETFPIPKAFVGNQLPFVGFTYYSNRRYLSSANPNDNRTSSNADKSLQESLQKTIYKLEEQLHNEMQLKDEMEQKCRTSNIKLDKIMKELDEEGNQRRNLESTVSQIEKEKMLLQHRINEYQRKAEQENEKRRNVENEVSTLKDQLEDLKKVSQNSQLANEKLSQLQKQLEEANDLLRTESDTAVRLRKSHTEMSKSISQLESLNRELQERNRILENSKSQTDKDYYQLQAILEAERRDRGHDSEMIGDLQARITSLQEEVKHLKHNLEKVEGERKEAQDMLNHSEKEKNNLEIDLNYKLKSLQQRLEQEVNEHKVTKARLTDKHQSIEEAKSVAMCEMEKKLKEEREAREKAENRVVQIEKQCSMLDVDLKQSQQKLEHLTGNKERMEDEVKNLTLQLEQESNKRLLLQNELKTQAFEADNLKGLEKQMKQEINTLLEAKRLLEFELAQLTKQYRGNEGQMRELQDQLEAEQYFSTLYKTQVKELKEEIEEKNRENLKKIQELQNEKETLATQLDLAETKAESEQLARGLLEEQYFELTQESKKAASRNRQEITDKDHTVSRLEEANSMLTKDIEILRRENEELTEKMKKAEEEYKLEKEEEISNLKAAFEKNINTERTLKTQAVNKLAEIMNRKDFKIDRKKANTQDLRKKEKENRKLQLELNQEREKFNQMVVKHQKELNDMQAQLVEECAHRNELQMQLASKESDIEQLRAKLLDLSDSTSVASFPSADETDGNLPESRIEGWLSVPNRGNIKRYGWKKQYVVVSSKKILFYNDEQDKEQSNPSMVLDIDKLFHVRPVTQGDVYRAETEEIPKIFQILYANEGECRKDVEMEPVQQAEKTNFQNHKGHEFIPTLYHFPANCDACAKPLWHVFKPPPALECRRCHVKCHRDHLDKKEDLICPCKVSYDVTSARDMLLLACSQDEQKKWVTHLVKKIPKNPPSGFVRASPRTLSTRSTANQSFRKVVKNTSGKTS
T1 sequence (P53671 whole entry, the tested form may be a part): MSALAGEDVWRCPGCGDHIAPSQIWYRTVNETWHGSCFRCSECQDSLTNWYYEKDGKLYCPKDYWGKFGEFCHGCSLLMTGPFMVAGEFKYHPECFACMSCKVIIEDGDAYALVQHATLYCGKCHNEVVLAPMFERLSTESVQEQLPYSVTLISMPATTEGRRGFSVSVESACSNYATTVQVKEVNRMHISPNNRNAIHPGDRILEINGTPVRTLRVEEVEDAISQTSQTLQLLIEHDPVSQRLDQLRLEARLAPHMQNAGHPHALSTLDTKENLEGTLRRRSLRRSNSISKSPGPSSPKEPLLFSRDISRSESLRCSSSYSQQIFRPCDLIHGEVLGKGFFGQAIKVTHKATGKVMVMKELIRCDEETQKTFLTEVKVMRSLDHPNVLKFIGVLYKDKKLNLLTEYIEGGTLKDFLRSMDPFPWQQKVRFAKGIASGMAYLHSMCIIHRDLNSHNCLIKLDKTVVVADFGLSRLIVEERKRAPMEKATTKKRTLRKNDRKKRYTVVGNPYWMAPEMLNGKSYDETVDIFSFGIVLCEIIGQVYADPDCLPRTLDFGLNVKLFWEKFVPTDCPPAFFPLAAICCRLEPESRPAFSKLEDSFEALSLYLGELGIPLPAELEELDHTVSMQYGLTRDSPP
LIM domain kinase 1, sequence (P53667 whole entry, the tested form may be a part): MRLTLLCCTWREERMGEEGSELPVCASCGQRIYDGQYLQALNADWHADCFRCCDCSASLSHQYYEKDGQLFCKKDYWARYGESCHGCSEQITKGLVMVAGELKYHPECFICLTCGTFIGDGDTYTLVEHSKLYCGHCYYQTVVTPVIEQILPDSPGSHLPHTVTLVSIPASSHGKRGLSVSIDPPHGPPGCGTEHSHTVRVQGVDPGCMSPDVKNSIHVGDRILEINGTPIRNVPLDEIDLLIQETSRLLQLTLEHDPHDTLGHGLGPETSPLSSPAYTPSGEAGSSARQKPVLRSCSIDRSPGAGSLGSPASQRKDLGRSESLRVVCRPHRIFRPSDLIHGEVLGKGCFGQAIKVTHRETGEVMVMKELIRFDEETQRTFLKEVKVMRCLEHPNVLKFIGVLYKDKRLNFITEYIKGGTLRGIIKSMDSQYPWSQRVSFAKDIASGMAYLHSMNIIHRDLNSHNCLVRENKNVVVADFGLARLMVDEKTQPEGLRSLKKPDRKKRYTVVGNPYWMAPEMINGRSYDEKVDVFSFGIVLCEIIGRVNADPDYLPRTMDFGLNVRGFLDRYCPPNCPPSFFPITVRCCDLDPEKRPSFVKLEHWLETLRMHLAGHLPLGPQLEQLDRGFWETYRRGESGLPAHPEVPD

As for `Cc1c[nH]c2ncnc(N3CCN(C(=O)N[C@@H](C)c4ccccc4)[C@@H](C)C3)c12`, the IC50 (usually the midpoint of a concentration-inhibition curve) in [1] was determined as 9.9 nM. For the compound `COc1cccc(NC(=O)N2CCN(c3ncnc4[nH]cc(C)c34)C[C@@H]2C)c1`, the IC50 in [1] was found to be 2.7 nM.

With `Cc1c[nH]c2ncnc(N3CCN(C(=O)Nc4ccccc4)[C@@H](C)C3)c12`, in data set [2], the Stability result was “Unstable”. Also, the IC50 in [1] is 1.2 nM. On the same counts, the results for `Cc1c[nH]c2ncnc(N3CCN(C(=O)Cc4ccccc4)[C@@H](C)C3)c12` are “Stable” and 660 nM. Regarding `Cc1c[nH]c2ncnc(N3CCN(C(=O)N[C@H](C)c4ccccc4)[C@@H](C)C3)c12`, in data set [1], the IC50 is 180 nM. For the compound `Cc1c[nH]c2ncnc(N3CCN(C(=O)Nc4cccc(OC(=O)N(C)C)c4)C(C(C)(C)C)C3)c12` (centres undefined), in [1], the IC50 was found to be 26 nM. The same measure, in the same setting: the figure for `Cc1c[nH]c2ncnc(N3CCN4C(=O)N(c5ccccc5)CC4C3)c12` (centres undefined) is over 1000 nM. The same measure, in the same setting: the figure for `Cc1c[nH]c2ncnc(N3CCC(C(=O)Nc4cccc(OC(C)C)c4)CC3)c12` is 330 nM; for `C=CCC1(C(=O)Nc2cccc(Cl)c2)CCN(c2ncnc3[nH]cc(C)c23)CC1` it is 1.9 nM. Still for that read-out and setting: the figure for `Cc1c[nH]c2ncnc(N3CCC(C)(C(=O)Nc4cccc(C(C)(C)C)c4)CC3)c12` is 3.2 nM; for `C=CCC1(C(=O)Nc2cccc(OC(=O)N(C)C)c2)CCN(c2ncnc3[nH]cc(C)c23)CC1` it is 2.2 nM. Take `Cc1c[nH]c2ncnc(N3CCC(C)(C(=O)Nc4cccc(OC(=O)N(C)C)c4)CC3)c12`: in data set [1], the IC50 worked out at 4.8 nM. On the same count and under the same terms, the figure for `Cc1c[nH]c2ncnc(N3CCC(O)(C(=O)Nc4cccc(OC(=O)N(C)C)c4)CC3)c12` is 138 nM; for `Cc1c[nH]c2ncnc(N3CCC(C(=O)Nc4cccc(OC(=O)N(C)C)c4)(N(C)C)CC3)c12` it is 5.1 nM.

Regarding `COCCOCC1(C(=O)Nc2cccc(OC(=O)N(C)C)c2)CCN(c2ncnc3[nH]cc(C)c23)CC1`, the IC50 in data set [3] was over 2800 nM; in [1], 2.7 nM. Also, the Activity in [4] is on record as -1.8 mmHg. `Cc1c[nH]c2ncnc(N3CCC(Cc4c[nH]cn4)(C(=O)Nc4cccc(OC(=O)N(C)C)c4)CC3)c12`: the results for the IC50 in data set [3] and in data set [1] were 514 nM and 1 nM, respectively. In addition, in data set [4], the Activity is -3.5 mmHg. As to `Cc1c[nH]c2ncnc(N3CCC(CCN(C)C)(C(=O)Nc4cccc(OC(=O)N(C)C)c4)CC3)c12`, the IC50 came to 139 nM in [3], 134 nM in data set [5] and 7.3 nM in [1]. For the same compound, the Activity in data set [4] is -3.4 mmHg. Regarding `Cc1c[nH]c2ncnc(N3CC[C@H](C(=O)Nc4cccc(OC(=O)N(C)C)c4)[C@@H](C)C3)c12` (relative stereo), in data set [1], the IC50 was determined as 210 nM. Same read-out and setting: the figure for `Cc1c[nH]c2ncnc(N3CC[C@H](C(=O)Nc4cccc(OC(=O)N(C)C)c4)[C@H](C)C3)c12` (relative stereo) is 110 nM. For the compound `Cc1c[nH]c2ncnc(N3CCC(CN)(C(=O)Nc4cccc(OC(=O)N(C)C)c4)CC3)c12` [LX-7101], the IC50 in data set [6] came out at 2200 nM; in [3], 69 nM; in data set [9], 7.5 nM; in [1], 4.3 nM; in data set [10], 32 nM; in data set [11], 340 nM. In addition, the Kd in [7] and in [12] was under 1000 nM each time. Moreover, in data set [8], the remaining at 336 h is 99%. The Activity in data set [4] is -4.2 mmHg. Moreover, the Cmax (as a rule, the peak of the concentration-time curve) in data set [13] came to 12 nM.
